According to PubChem BioAssay AID1918935 (Molecular Pharmacology Branch, DTP, NCI, 2023):
Where “and” joins values, the source holds several entries; their conditions need not be identical. Equal entries are not always repeated.

System: 324938-238-R-J1-PDC complex spheroid viability
Experiment: Anticancer human tumor 324938-238-R-J1-PDC patient-derived bladder carcinoma cell line growth inhibition
Conditions: for viability, T/C: stronger effect = lower value
How it was run: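 Complex spheroids of tumor cells with HUVEC and human MSCs, exposed to iadademstat combined with other agents. Each agent tested in half-log steps from near clinical Cmax (else 10 microM top), DMSO ≤0.25%.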

[1] = curve of first compound, second compound 0.1 µM
[2] = curve of first compound, second compound 0.316 µM
[3] = curve of first compound, second compound 1 µM
[4] = curve of first compound, second compound 3.16 µM
[5] = curve of first compound, second compound 10 µM
[6] = second compound 0.1 µM, first compound 0.00316 µM
[7] = second compound 0.1 µM, first compound 0.01 µM
[8] = second compound 0.1 µM, first compound 0.0316 µM
[9] = second compound 0.1 µM, first compound 0.1 µM
[10] = second compound 0.316 µM, first compound 0.00316 µM
[11] = second compound 0.316 µM, first compound 0.01 µM
[12] = second compound 0.316 µM, first compound 0.0316 µM
[13] = second compound 0.316 µM, first compound 0.1 µM
[14] = second compound 1 µM, first compound 0.00316 µM
[15] = second compound 1 µM, first compound 0.01 µM
[16] = second compound 1 µM, first compound 0.0316 µM
[17] = second compound 1 µM, first compound 0.1 µM
[18] = second compound 3.16 µM, first compound 0.00316 µM
[19] = second compound 3.16 µM, first compound 0.01 µM
[20] = second compound 3.16 µM, first compound 0.0316 µM
[21] = second compound 3.16 µM, first compound 0.1 µM
[22] = second compound 10 µM, first compound 0.00316 µM
[23] = second compound 10 µM, first compound 0.01 µM
[24] = second compound 10 µM, first compound 0.0316 µM
[25] = second compound 10 µM, first compound 0.1 µM
[26] = second compound 0.1 µM, first compound 0.000316 µM
[27] = second compound 0.1 µM, first compound 0.001 µM
[28] = second compound 0.316 µM, first compound 0.000316 µM
[29] = second compound 0.316 µM, first compound 0.001 µM
[30] = second compound 1 µM, first compound 0.000316 µM
[31] = second compound 1 µM, first compound 0.001 µM
[32] = second compound 3.16 µM, first compound 0.000316 µM
[33] = second compound 3.16 µM, first compound 0.001 µM
[34] = second compound 10 µM, first compound 0.000316 µM
[35] = second compound 10 µM, first compound 0.001 µM
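Also: spheroids exposed to agents for 7 days before readout.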

For O=C(C=Cc1cccc(S(=O)(=O)Nc2ccccc2)c1)NO, the viability, T/C (compound 0.00949 µM) was 95.5% and 107%, the viability, T/C (compound 0.03 µM) was 89.1% and 92.1% and the viability, T/C (compound 0.0949 µM) was 71% and 70%. For the same compound, the viability, T/C (compound 0.3 µM) was 46.1% and 42.8%, the viability, T/C (compound 0.949 µM) was 26.1% and 24.2% and the viability, T/C (compound 3 µM) was 4.98% and 3.24%. The IC50 (curve of compound) was 273 nM and 237 nM.

With Nc1ncn(C2CC(O)C(CO)S2)c(=O)n1 (stereo unspecified) the viability, T/C (compound 0.000949 µM) was 97.4% and 106%, the viability, T/C (compound 0.003 µM) was 88.2% and 90.7% and the viability, T/C (compound 0.00949 µM) was 72.2% and 69.6%. The viability, T/C (compound 0.03 µM) was 51.5% and 46.5%, the viability, T/C (compound 0.0949 µM) was 33.2% and 27.5% and the viability, T/C (compound 0.3 µM) was 22.2% and 17.4%. The IC50 (curve of compound) was 32.8 nM and 24.8 nM.

In the case of O=C(C=Cn1cnc(-c2cc(C(F)(F)F)cc(C(F)(F)F)c2)n1)NNc1cnccn1 + NC1CCC(NC2CC2c2ccccc2)CC1, the IC50 [1] is reported as 4.66 nM, the IC50 [2] is reported as < 3.16 nM and the IC50 [3] is reported as 5.06 nM. It also gave an IC50 [4] of 4.22 nM, an IC50 [5] of 4.01 nM and a viability, T/C [6] of 55.5%. The viability, T/C [7] was 39.2%, the viability, T/C [8] was 19.9% and the viability, T/C [9] was 10.1%. It also gave a viability, T/C (second compound 0.1 µM, first compound 0.316 µM) of 6.81%, a viability, T/C (second compound 0.1 µM, first compound 1 µM) of 3.54% and a viability, T/C [10] of 49.3%. The viability, T/C [11] was 37.7%, the viability, T/C [12] was 19.9% and the viability, T/C [13] was 9.54%. The viability, T/C (second compound 0.316 µM, first compound 0.316 µM) was 6.12%, the viability, T/C (second compound 0.316 µM, first compound 1 µM) was 3.24% and the viability, T/C [14] was 56.9%. The viability, T/C [15] was 40%, the viability, T/C [16] was 22.6% and the viability, T/C [17] was 11.8%. The viability, T/C (second compound 1 µM, first compound 0.316 µM) was 5.1%, the viability, T/C (second compound 1 µM, first compound 1 µM) was 3.42% and the viability, T/C [18] was 53.8%. The viability, T/C [19] was 38.8%, the viability, T/C [20] was 22.6% and the viability, T/C [21] was 12%. It also gave a viability, T/C (second compound 3.16 µM, first compound 0.316 µM) of 6.8%, a viability, T/C (second compound 3.16 µM, first compound 1 µM) of 4.08% and a viability, T/C [22] of 53.4%. The viability, T/C [23] was 37.1%, the viability, T/C [24] was 25.7% and the viability, T/C [25] was 15.3%. It also gave a viability, T/C (second compound 10 µM, first compound 0.316 µM) of 7.05% and a viability, T/C (second compound 10 µM, first compound 1 µM) of 4.89%.

CC(C)CC(NC(=O)CNC(=O)c1cc(Cl)ccc1Cl)B1OC(=O)CC(CC(=O)O)(C(=O)O)O1 (stereo unspecified) + NC1CC1c1ccc(-c2cccc(O)c2)cc1 gave an IC50 [1] of 1.65 nM, an IC50 [2] of 1.39 nM and an IC50 [3] of 1.39 nM. For the same compound, the IC50 [4] was 1.36 nM, the IC50 [5] was 1.18 nM and the viability, T/C [26] was 94.4%. For the same compound, the viability, T/C [27] was 68.7%, the viability, T/C [6] was 25.7% and the viability, T/C [7] was 5.88%. The viability, T/C [8] was 3.13%, the viability, T/C [9] was 0.16% and the viability, T/C [28] was 73%. It also gave a viability, T/C [29] of 59.3%, a viability, T/C [10] of 26.3% and a viability, T/C [11] of 4.54%. For the same compound, the viability, T/C [12] was 0.95%, the viability, T/C [13] was 0.15% and the viability, T/C [30] was 78.3%. The viability, T/C [31] was 61.5%, the viability, T/C [14] was 21.6% and the viability, T/C [15] was 4.36%. The viability, T/C [16] was 0.4%, the viability, T/C [17] was 1.08% and the viability, T/C [32] was 77.5%. The viability, T/C [33] was 58.5%, the viability, T/C [18] was 26.3% and the viability, T/C [19] was 5.45%. It also gave a viability, T/C [20] of 0.71%, a viability, T/C [21] of 1.92% and a viability, T/C [34] of 67.7%. For the same compound, the viability, T/C [35] was 54.7%, the viability, T/C [22] was 20.6% and the viability, T/C [23] was 2.92%. It also gave a viability, T/C [24] of 0.54% and a viability, T/C [25] of 0.22%.

Cn1ncnc1C1c2n[nH]c(=O)c3cc(F)cc(c23)NC1c1ccc(F)cc1 (stereo unspecified) + NC1CC1c1ccc(-c2cccc(O)c2)cc1 showed an IC50 [1] of 37.8 nM, an IC50 [2] of 52.3 nM and an IC50 [3] of 46.1 nM. The IC50 [4] was 59.6 nM, the IC50 [5] was 59.8 nM and the viability, T/C [26] was 82.2%. The viability, T/C [27] was 91%, the viability, T/C [6] was 78.1% and the viability, T/C [7] was 76.7%. It also gave a viability, T/C [8] of 50.8%, a viability, T/C [9] of 43.1% and a viability, T/C [28] of 88.3%. The viability, T/C [29] was 65.7%, the viability, T/C [10] was 69.3% and the viability, T/C [11] was 61.9%. For the same compound, the viability, T/C [12] was 50%, the viability, T/C [13] was 47% and the viability, T/C [30] was 70%. For the same compound, the viability, T/C [31] was 71.1%, the viability, T/C [14] was 66.4% and the viability, T/C [15] was 62.3%. The viability, T/C [16] was 53.8%, the viability, T/C [17] was 41.8% and the viability, T/C [32] was 76.1%. For the same compound, the viability, T/C [33] was 73.1%, the viability, T/C [18] was 63.9% and the viability, T/C [19] was 63.1%. The viability, T/C [20] was 48.6%, the viability, T/C [21] was 49.2% and the viability, T/C [34] was 64.1%. For the same compound, the viability, T/C [35] was 68%, the viability, T/C [22] was 64% and the viability, T/C [23] was 60.4%. For the same compound, the viability, T/C [24] was 47% and the viability, T/C [25] was 50%.

In the case of NS(=O)(=O)OCC1CC(n2ccc3c(NC4CCc5ccccc54)ncnc32)CC1O (stereo unspecified) + NC1CC1c1ccc(-c2cccc(O)c2)cc1, the IC50 [1] is reported as 327 nM, the IC50 [2] is reported as 230 nM and the IC50 [3] is reported as 299 nM. The IC50 [4] was 300 nM, the IC50 [5] was 334 nM and the viability, T/C (second compound 0.1 µM, first compound 0.00949 µM) was 97.7%. It also gave a viability, T/C (second compound 0.1 µM, first compound 0.03 µM) of 101%, a viability, T/C (second compound 0.1 µM, first compound 0.0949 µM) of 95.1% and a viability, T/C (second compound 0.1 µM, first compound 0.3 µM) of 53.2%. It also gave a viability, T/C (second compound 0.1 µM, first compound 0.949 µM) of 12.4%, a viability, T/C (second compound 0.1 µM, first compound 3 µM) of 12% and a viability, T/C (second compound 0.316 µM, first compound 0.00949 µM) of 84.6%. The viability, T/C (second compound 0.316 µM, first compound 0.03 µM) was 84.8%, the viability, T/C (second compound 0.316 µM, first compound 0.0949 µM) was 76% and the viability, T/C (second compound 0.316 µM, first compound 0.3 µM) was 42.7%. It also gave a viability, T/C (second compound 0.316 µM, first compound 0.949 µM) of 12.5%, a viability, T/C (second compound 0.316 µM, first compound 3 µM) of 11.9% and a viability, T/C (second compound 1 µM, first compound 0.00949 µM) of 95.6%. For the same compound, the viability, T/C (second compound 1 µM, first compound 0.03 µM) was 77.8%, the viability, T/C (second compound 1 µM, first compound 0.0949 µM) was 84.8% and the viability, T/C (second compound 1 µM, first compound 0.3 µM) was 49.9%. The viability, T/C (second compound 1 µM, first compound 0.949 µM) was 11.3%, the viability, T/C (second compound 1 µM, first compound 3 µM) was 9.03% and the viability, T/C (second compound 3.16 µM, first compound 0.00949 µM) was 88.9%. It also gave a viability, T/C (second compound 3.16 µM, first compound 0.03 µM) of 93.6%, a viability, T/C (second compound 3.16 µM, first compound 0.0949 µM) of 86.4% and a viability, T/C (second compound 3.16 µM, first compound 0.3 µM) of 50.3%. For the same compound, the viability, T/C (second compound 3.16 µM, first compound 0.949 µM) was 12.2%, the viability, T/C (second compound 3.16 µM, first compound 3 µM) was 9.8% and the viability, T/C (second compound 10 µM, first compound 0.00949 µM) was 74.8%. The viability, T/C (second compound 10 µM, first compound 0.03 µM) was 86.4%, the viability, T/C (second compound 10 µM, first compound 0.0949 µM) was 80.1% and the viability, T/C (second compound 10 µM, first compound 0.3 µM) was 52.6%. For the same compound, the viability, T/C (second compound 10 µM, first compound 0.949 µM) was 19.7% and the viability, T/C (second compound 10 µM, first compound 3 µM) was 12.4%.

In the case of Cn1ncnc1C1c2n[nH]c(=O)c3cc(F)cc(c23)NC1c1ccc(F)cc1 (stereo unspecified), the viability, T/C (compound 0.000316 µM) is reported as 99.3% and 106%, the viability, T/C (compound 0.001 µM) is reported as 102% and 99.5% and the viability, T/C (compound 0.00316 µM) is reported as 99.7% and 90.2%. For the same compound, the viability, T/C (compound 0.01 µM) was 92.3% and 94.8%, the viability, T/C (compound 0.0316 µM) was 82.6% and 76% and the viability, T/C (compound 0.1 µM) was 68.6% and 58.2%. For the same compound, the IC50 (curve of compound) was > 100 nM.
